Assay results published in ChEMBL document CHEMBL5528048, “Discovery of Novel Potent and Fast BTK PROTACs for the Treatment of Osteoclasts-Related Inflammatory Diseases” (J Med Chem, 2024).
Calls of active or inactive are those of the source. The calls are words filed in the database; no cut-off is given here.

Key:
[1] = tested on: Mus musculus; assay: Antiosteoclastogenic effects in LPS-soaked ligature-induced C57BL/6J mouse periodontal disease model assessed as reduction in periodontal alveolar bone loss at 10 mg/kg, ip treated on day 0, 1,4, 7 and measured on day 10 by Micro-CT 3D scan; format: functional, organism-based; settings: time 7.0 day
[2] = molecular target: T1, Protein cereblon/Tyrosine-protein kinase BTK (Homo sapiens, UniProt Q06187+Q96SW2); assay: PROTAC activity at BTK/CRBN in human MINO cells assessed as BTK protein degradation at 20 nM by Western blotting analysis; format: cell-based; settings: time lower 2.0 hrs, time upper […], TDE = time-dependent effect
Target sequence in this assay (Q06187 2-659 limits assumed): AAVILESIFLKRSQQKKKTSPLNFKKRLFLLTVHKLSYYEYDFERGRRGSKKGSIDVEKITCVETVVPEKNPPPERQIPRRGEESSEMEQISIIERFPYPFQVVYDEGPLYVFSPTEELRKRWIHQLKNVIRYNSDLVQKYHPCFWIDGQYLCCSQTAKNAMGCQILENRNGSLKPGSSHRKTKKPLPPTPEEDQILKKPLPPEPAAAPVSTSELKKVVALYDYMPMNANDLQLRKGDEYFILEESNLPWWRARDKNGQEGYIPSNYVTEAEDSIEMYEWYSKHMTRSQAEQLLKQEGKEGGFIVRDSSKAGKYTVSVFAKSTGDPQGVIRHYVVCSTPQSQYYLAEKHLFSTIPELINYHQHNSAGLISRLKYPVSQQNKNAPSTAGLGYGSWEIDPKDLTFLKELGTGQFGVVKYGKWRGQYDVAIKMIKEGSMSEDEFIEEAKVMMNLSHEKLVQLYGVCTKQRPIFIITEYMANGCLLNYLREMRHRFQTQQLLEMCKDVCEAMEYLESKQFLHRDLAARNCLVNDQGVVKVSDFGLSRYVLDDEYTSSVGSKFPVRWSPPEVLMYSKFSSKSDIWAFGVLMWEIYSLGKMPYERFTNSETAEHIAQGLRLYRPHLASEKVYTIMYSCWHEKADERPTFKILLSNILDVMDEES
Target sequence in this assay (Q96SW2 whole entry partner): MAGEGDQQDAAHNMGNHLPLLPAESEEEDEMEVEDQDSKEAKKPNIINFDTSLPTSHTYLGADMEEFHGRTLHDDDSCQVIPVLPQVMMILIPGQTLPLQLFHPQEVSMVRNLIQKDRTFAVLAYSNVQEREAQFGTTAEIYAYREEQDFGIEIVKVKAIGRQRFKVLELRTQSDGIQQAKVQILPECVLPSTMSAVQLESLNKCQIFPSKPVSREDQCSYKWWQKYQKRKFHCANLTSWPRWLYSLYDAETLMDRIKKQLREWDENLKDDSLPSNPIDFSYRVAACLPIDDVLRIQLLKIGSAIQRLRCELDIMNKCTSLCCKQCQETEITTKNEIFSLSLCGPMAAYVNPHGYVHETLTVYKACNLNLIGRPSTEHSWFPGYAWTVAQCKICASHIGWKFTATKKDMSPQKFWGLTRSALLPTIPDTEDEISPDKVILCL

[3] = molecular target: T1, Protein cereblon/Tyrosine-protein kinase BTK; assay: PROTAC activity at BTK/CRBN in human MINO cells assessed as BTK protein degradation at 100 nM measured after 24 hrs by Western blotting analysis relative to control; format: cell-based
Target sequence in this assay (Q06187 2-659 limits assumed): as the sequence (Q06187 2-659 limits assumed) above
Target sequence in this assay (Q96SW2 whole entry partner): as the sequence (Q96SW2 whole entry partner) above

[4] = Clearance in Sprague-Dawley rat at 4 mg/kg, ip measured upto 48 hrs; settings: in vivo
[5] = AUC (0 to t) in Sprague-Dawley rat at 2 mg/kg, iv measured upto 48 hrs; format: ADME, organism-based; settings: in vivo
[6] = molecular target: Tyrosine-protein kinase BTK (Homo sapiens, UniProt Q06187); assay: Binding affinity to BTK (unknown origin) assessed as inhibition constant measured after 60 mins incubation by microtiter-plate reader
Chain of Tyrosine-protein kinase BTK (Q06187 whole entry): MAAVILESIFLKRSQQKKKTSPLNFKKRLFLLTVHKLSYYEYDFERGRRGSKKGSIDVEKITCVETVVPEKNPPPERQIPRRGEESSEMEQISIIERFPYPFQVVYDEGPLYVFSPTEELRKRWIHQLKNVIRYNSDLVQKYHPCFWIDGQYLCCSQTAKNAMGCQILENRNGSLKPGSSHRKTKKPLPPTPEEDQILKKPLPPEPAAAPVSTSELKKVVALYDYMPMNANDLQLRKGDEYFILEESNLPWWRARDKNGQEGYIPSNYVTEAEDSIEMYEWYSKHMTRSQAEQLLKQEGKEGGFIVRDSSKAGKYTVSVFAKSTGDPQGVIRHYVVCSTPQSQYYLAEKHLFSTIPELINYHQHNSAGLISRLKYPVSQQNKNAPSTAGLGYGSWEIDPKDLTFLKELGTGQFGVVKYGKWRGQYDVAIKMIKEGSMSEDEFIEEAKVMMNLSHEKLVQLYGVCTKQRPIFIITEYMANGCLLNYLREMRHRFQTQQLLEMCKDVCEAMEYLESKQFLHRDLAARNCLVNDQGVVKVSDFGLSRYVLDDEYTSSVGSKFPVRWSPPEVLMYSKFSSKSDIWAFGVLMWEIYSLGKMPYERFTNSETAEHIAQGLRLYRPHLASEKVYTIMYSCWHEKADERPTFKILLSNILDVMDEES

[7] = tested on: BMMC; assay: Inhibition of RANKKL-induced upregulation of osteoclast related genes in C57BL/6J mouse BMM cells assessed as reduction in mCSF/RANKL-stimulated Dcstamp-gene expression at 25 to 100 nM followed by stimulated with mCSF/RANKL measured after 2 hrs by qPCR analysis; format: functional, cell-based; settings: dose 25-100 nM
[8] = molecular target: T2, Protein cereblon/Tyrosine-protein kinase BTK (Mus musculus) (UniProt P35991+Q8C7D2); assay: PROTAC activity at BTK/CRBN in C57BL/6J mouse BMM cells assessed as reduction in mCSF/RANKL-stimulated NFATc1 protein expression at 25 to 100 nM followed by stimulated with mCSF/RANKL measured after 2 hrs by Western blot analysis; format: cell-based; settings: BMDM, dose 25-100 nM
T2 sequence (P35991 whole entry, looked up): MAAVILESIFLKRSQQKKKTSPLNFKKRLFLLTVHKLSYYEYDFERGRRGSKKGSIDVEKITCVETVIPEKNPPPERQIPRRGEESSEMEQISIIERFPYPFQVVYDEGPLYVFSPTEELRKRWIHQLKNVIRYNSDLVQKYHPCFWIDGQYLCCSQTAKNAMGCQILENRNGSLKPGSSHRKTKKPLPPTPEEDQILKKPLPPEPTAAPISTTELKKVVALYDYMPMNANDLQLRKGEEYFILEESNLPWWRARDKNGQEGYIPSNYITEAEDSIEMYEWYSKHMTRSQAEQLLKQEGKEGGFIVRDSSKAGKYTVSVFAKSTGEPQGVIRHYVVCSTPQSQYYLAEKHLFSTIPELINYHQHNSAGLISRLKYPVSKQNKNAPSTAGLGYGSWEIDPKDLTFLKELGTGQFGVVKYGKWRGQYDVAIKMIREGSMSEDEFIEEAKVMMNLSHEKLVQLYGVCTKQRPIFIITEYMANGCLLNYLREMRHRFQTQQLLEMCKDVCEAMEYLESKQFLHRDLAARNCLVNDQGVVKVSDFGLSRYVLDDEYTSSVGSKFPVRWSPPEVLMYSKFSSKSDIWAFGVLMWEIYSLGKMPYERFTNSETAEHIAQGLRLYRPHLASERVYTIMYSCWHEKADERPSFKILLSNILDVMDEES
T2 sequence (Q8C7D2 whole entry, looked up): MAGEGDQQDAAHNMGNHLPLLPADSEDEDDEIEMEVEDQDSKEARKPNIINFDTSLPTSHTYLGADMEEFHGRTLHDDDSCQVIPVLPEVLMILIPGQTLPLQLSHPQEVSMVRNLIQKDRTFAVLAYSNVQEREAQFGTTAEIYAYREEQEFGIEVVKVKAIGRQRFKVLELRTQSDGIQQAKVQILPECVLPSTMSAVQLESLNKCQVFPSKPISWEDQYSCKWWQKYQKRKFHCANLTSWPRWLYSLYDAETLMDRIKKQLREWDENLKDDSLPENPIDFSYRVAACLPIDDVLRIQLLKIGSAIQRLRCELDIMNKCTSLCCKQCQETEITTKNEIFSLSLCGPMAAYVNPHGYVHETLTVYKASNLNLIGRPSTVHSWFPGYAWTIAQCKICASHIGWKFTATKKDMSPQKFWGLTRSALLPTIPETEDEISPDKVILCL

[9] = tested on: BMMC; assay: Inhibition of osteoclastogenesis in C57BL/6J mouse BMM cells assessed as inhibition of mCSF/RANKL-stimulated matured osteoclast formation measured after 5 days co-incubation by tartrate-resistant acid phosphatase (TRAP) staining assay; format: functional, cell-based; settings: time 5.0 day
[10] = molecular target: T1, Protein cereblon/Tyrosine-protein kinase BTK; assay: PROTAC activity at BTK/CRBN in human MINO cells assessed as BTK protein degradation at 20 nM measured after 2 hrs by Western blotting analysis; format: cell-based
Target sequence in this assay (Q06187 2-659 limits assumed): as the sequence (Q06187 2-659 limits assumed) above
Target sequence in this assay (Q96SW2 whole entry partner): as the sequence (Q96SW2 whole entry partner) above

[11] = tested on: Mus musculus; assay: Antiosteoclastogenic effects in LPS-soaked ligature-induced C57BL/6J mouse periodontal disease model assessed as reduction in periodontal alveolar bone loss at 30 mg/kg, ip treated on day 0, 1,4, 7 and measured on day 10 by Micro-CT 3D scan; format: functional, organism-based; settings: time 7.0 day
[12] = molecular target: T1, Protein cereblon/Tyrosine-protein kinase BTK; assay: Binding affinity to BTK/CRBN (unknown origin) assessed as ternary complex formation measured after 60 mins incubation by HTRF assay
Target sequence in this assay (Q06187 whole entry): as the sequence (Q06187 whole entry) above
Target sequence in this assay (Q96SW2 whole entry): as the sequence (Q96SW2 whole entry partner) above

[13] = molecular target: T2, Protein cereblon/Tyrosine-protein kinase BTK (Mus musculus); assay: PROTAC activity at BTK/CRBN in mCSF/RANKL-stimulated C57BL/6J mouse BMDM assessed as reduction in phosphorylated BTK protein level at 25 to 100 nM followed by stimulated with mCSF/RANKL measured after 2 hrs by Western blotting analysis; format: cell-based; settings: dose 25-100 nM
[14] = Bioavailability in Sprague-Dawley rat at 4 mg/kg, ip measured upto 48 hrs; format: ADME, organism-based; settings: in vivo
[15] = molecular target: T1, Protein cereblon/Tyrosine-protein kinase BTK; assay: PROTAC activity at BTK/CRBN in human MINO cells assessed as BTK protein degradation pretreated with 2 uM bafilomycin followed by 1 hr treated at 20 nM measured after 48 hrs by Western blotting analysis; format: cell-based; settings: dose […]
Target sequence in this assay (Q06187 2-659 limits assumed): as the sequence (Q06187 2-659 limits assumed) above
Target sequence in this assay (Q96SW2 whole entry partner): as the sequence (Q96SW2 whole entry partner) above

[16] = molecular target: T2, Protein cereblon/Tyrosine-protein kinase BTK (Mus musculus); assay: PROTAC activity at BTK/CRBN in mCSF/RANKL-stimulated C57BL/6J mouse BMDM assessed as reduction in phosphorylated NFkappa-p65 protein level at 25 to 100 nM followed by stimulated with mCSF/RANKL measured after 2 hrs by Western blotting analysis; format: cell-based; settings: dose 25-100 nM
[17] = molecular target: T2, Protein cereblon/Tyrosine-protein kinase BTK (Mus musculus); assay: PROTAC activity at BTK/CRBN in mCSF/RANKL-stimulated C57BL/6J mouse BMDM assessed as BTK protein degradation at 25 to 100 nM followed by stimulated with mCSF/RANKL measured after 2 hrs by Western blotting analysis; format: cell-based; settings: dose 25-100 nM
[18] = Half life in Sprague-Dawley rat at 2 mg/kg, iv measured upto 48 hrs; format: ADME, organism-based; settings: in vivo
[19] = molecular target: T1, Protein cereblon/Tyrosine-protein kinase BTK; assay: PROTAC activity at BTK/CRBN in human MINO cells assessed as BTK protein degradation by measuring onset time activity at 20 nM by Western blotting analysis; format: cell-based
Target sequence in this assay (Q06187 2-659 limits assumed): as the sequence (Q06187 2-659 limits assumed) above
Target sequence in this assay (Q96SW2 whole entry partner): as the sequence (Q96SW2 whole entry partner) above

[20] = AUC (0 to infinity) in Sprague-Dawley rat at 4 mg/kg, ip measured upto 48 hrs; format: ADME, organism-based; settings: in vivo
[21] = Apparent volume of distribution in Sprague-Dawley rat at 4 mg/kg, ip measured upto 48 hrs; format: ADME, organism-based; settings: in vivo
[22] = AUC (0 to t) in Sprague-Dawley rat at 4 mg/kg, ip measured upto 48 hrs; format: ADME, organism-based; settings: in vivo
[23] = molecular target: Protein cereblon (Homo sapiens, UniProt Q96SW2); assay: Inhibition of CRBN (unknown origin) measured after 60 mins incubation by BMG reader
Chain of Protein cereblon (Q96SW2 whole entry): as the sequence (Q96SW2 whole entry partner) above

[24] = molecular target: T1, Protein cereblon/Tyrosine-protein kinase BTK; assay: PROTAC activity at BTK/CRBN in human MINO cells assessed as BTK protein degradation at 20 nM measured after 24 hrs by Western blotting analysis relative to control; format: cell-based
Target sequence in this assay (Q06187 2-659 limits assumed): as the sequence (Q06187 2-659 limits assumed) above
Target sequence in this assay (Q96SW2 whole entry partner): as the sequence (Q96SW2 whole entry partner) above

[25] = molecular target: T2, Protein cereblon/Tyrosine-protein kinase BTK (Mus musculus); assay: PROTAC activity at BTK/CRBN in C57BL/6J mouse BMDM assessed as reduction in mCSF/RANKL-stimulated intracellular calcium influx by measuring fluorescence intensity measured after 2 hrs by Fluo-4/AM-fluorescent assay; format: cell-based; settings: dose 25-100 nM
[26] = molecular target: T1, Protein cereblon/Tyrosine-protein kinase BTK; assay: Binding affinity to BTK/CRBN (unknown origin) assessed as ternary complex formation by measuring peak concentration measured after 60 mins incubation by HTRF assay
[27] = tested on: BMMC; assay: Inhibition of RANKKL-induced upregulation of osteoclast related genes in C57BL/6J mouse BMM cells assessed as reduction in mCSF/RANKL-stimulated CTSK gene expression at 25 to 100 nM followed by stimulated with mCSF/RANKL measured after 2 hrs by qPCR analysis; format: functional, cell-based; settings: dose 25-100 nM
[28] = Half life in Sprague-Dawley rat at 4 mg/kg, ip measured upto 48 hrs; format: ADME, organism-based; settings: in vivo
[29] = Cmax in Sprague-Dawley rat at 2 mg/kg, iv measured upto 48 hrs; format: ADME, organism-based; settings: in vivo
[30] = molecular target: T1, Protein cereblon/Tyrosine-protein kinase BTK; assay: PROTAC activity at BTK/CRBN in human MINO cells assessed as BTK protein degradation half life at 20 nM by Western blotting analysis; format: cell-based
[31] = tested on: BMMC; assay: Cytotoxicity against C57BL/6J mouse BMM cells assessed as cell viability at 10 uM measured after 1 to 2 hrs by CCK8 assay; format: toxicity, cell-based; settings: time 1-2 hrs
[32] = molecular target: T1, Protein cereblon/Tyrosine-protein kinase BTK; assay: PROTAC activity at BTK/CRBN in human MINO cells assessed as BTK protein degradation measured for 4 hrs by Western blotting analysis; format: cell-based
Target sequence in this assay (Q06187 whole entry): as the sequence (Q06187 whole entry) above
Target sequence in this assay (Q96SW2 whole entry): as the sequence (Q96SW2 whole entry partner) above

[33] = molecular target: T2, Protein cereblon/Tyrosine-protein kinase BTK (Mus musculus); assay: PROTAC activity at BTK/CRBN in mCSF/RANKL-stimulated C57BL/6J mouse BMDM assessed as reduction in phosphorylated JNK protein level at 25 to 100 nM followed by stimulated with mCSF/RANKL measured after 2 hrs by Western blotting analysis; format: cell-based; settings: dose 25-100 nM

With `Cc1cc(-c2nc(Nc3cnn(C4CCN(CC5CCN(c6ccc7c(c6)C(=O)N(C6CCC(=O)NC6=O)C7=O)CC5)CC4)c3)ncc2F)ccc1CNC(=O)c1cn(C(C)(C)C)nn1` (stereo not drawn) the Activity [1] was “Active”, the Activity [2] was “Tde” and the Activity [3] was 99%. For the same compound, the CL/F at 48 h [4] was 25.8 mL/min/kg, the AUC(0-t) at 48 h [5] was 2340 ng·h/mL and the Ki [6] was 0.152 µM. The inhibition [7] was “Active”, the Activity [8] was “Active” and the inhibition [9] was “Active”. For the same compound, the Activity [10] was “Active”, the Activity [11] was “Active” and the EC50 [12] was 0.00428 µM. The Activity [13] was “Active”, the bioavailability [14] was 65.7% and the Activity [15] was “inactive”. The Activity [16] was “Active”, the Activity [17] was “inactive” and the half-life [18] was 7.03 h. The TIME [19] was < 0.5 h, the AUC(0-inf) [20] was 3090 ng·h/mL and the Vz [21] was 30.04 L/kg. The AUC(0-t) at 48 h [22] was 2800 ng·h/mL, the IC50 [23] was 0.248 µM and the Activity [24] was 99%. The Activity [25] was “Dose-Dependent Effect”, the Activity [26] was 12.3 nM and the inhibition [27] was “Active”. It also gave a half-life [28] of 13.6 h, a Cmax [29] of 645 ng/mL and a T1/2 [30] of 0.59 h. The Activity [31] was “Non-Toxic”, the DC50 [32] was 0.00129 µM and the Activity [33] was “Active”.
